This note sets out measurements from the supplement of paper PMC12137928.

Counter-ions that a name gives are not always drawn.

The test system of the assay is HCT116. As to conditions: 72 h. The essentials:
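For IC50 and maximal efficacy, four-parameter Hill fits were used. Input values were CellTiter-Glo luminescence from HCT116 cells seeded at 250 per well in 1536-well plates, normalized to vehicle (0%) and positive control (-100%). Pattern correction followed normalization.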

For `CCCCC1C(=O)NC(=O)N(C2CCCCC2)C1=O` (configuration not stated) [Bucolome], the IC50 cell viability is greater than 45.8 µM (ICRF193 0 nM) and greater than 45.8 µM (ICRF193 200 nM).

Take `CC(C)NC(=N)NC(=N)Nc1ccc(Cl)cc1` [Proguanil hydrochloride]: the IC50 cell viability by setting is: (ICRF193 0 nM) greater than 45.8 µM; (ICRF193 200 nM) greater than 45.8 µM.

Consider `CCCCCCCCCC(=O)NO` [Sodium decanehydroxamate], for which the IC50 cell viability is greater than 45.8 µM (ICRF193 0 nM) and greater than 45.8 µM (ICRF193 200 nM).

Consider `CC[N+](CC)(CCNC(=O)C(=O)NCC[N+](CC)(CC)Cc1ccccc1Cl)Cc1ccccc1Cl` [Ambenonium chloride], for which the IC50 cell viability (ICRF193 0 nM) is greater than 45.8 µM and the IC50 cell viability (ICRF193 200 nM) was greater than 45.8 µM.

`N=C(N)NCC1COC2(CCCCC2)O1` (configuration not stated) [Guanadrel sulfate]: the IC50 cell viability runs as follows: (ICRF193 0 nM) greater than 45.8 µM; (ICRF193 200 nM) greater than 45.8 µM.

`O=S(O)CNc1ccc(S(=O)(=O)c2ccc(NCS(=O)O)cc2)cc1` [Adesulfone sodium] yielded an IC50 cell viability (ICRF193 0 nM) greater than 45.8 µM and an IC50 cell viability (ICRF193 200 nM) greater than 45.8 µM.

The molecule `FC(F)(F)c1cccc(C2=CCN(CCc3ccc4ccccc4c3)CC2)c1` [Xaliproden hydrochloride] registered an IC50 cell viability (ICRF193 0 nM) greater than 45.8 µM and an IC50 cell viability (ICRF193 200 nM) greater than 45.8 µM.

In the case of `CC(C)(O)CNc1nc(Nc2ccnc(C(F)(F)F)c2)nc(-c2cccc(C(F)(F)F)n2)n1` [Enasidenib], the IC50 cell viability is greater than 45.8 µM (ICRF193 0 nM) and greater than 45.8 µM (ICRF193 200 nM).

On to `CCCC(CCC)C(=O)O[C@H]1C[C@H]2CC[C@@H](C1)[N+]2(C)C` [Anisotropine methylbromide], for which the IC50 cell viability reads like this: (ICRF193 0 nM) greater than 45.8 µM; (ICRF193 200 nM) greater than 45.8 µM.

With `C[C@]12CC[C@@H]3c4ccc(O)cc4CC[C@H]3[C@@H]1CCC2=O` [Estrone], the IC50 cell viability was greater than 45.8 µM (ICRF193 0 nM) and greater than 45.8 µM (ICRF193 200 nM).

In the case of `Cc1cc(Nc2ccccc2C(=O)O)ccc1Cl` [2-[(4-Chloro-3-methylphenyl)amino]benzoic acid], the IC50 cell viability is greater than 45.8 µM (ICRF193 0 nM) and greater than 45.8 µM (ICRF193 200 nM).

Turning to `CC1(C)S[C@@H]2[C@H](NC(=O)C(C(=O)Oc3ccc4c(c3)CCC4)c3ccccc3)C(=O)N2[C@H]1C(=O)O` (some centres not stated) [Carbenicillin indanyl], the IC50 cell viability was greater than 45.8 µM (ICRF193 0 nM) and greater than 45.8 µM (ICRF193 200 nM).

With `CCOC(=O)[C@H](CCc1ccccc1)N[C@@H](C)C(=O)N1[C@H](C(=O)O)C[C@@H]2CCC[C@@H]21` [Ramipril], the IC50 cell viability is greater than 45.8 µM (ICRF193 0 nM) and greater than 45.8 µM (ICRF193 200 nM).

With `CN1CCc2nc(C(=O)N[C@@H]3C[C@@H](C(=O)N(C)C)CC[C@@H]3NC(=O)C(=O)Nc3ccc(Cl)cn3)sc2C1` [Edoxaban tosylate monohydrate], the IC50 cell viability by setting is: (ICRF193 0 nM) greater than 45.8 µM; (ICRF193 200 nM) greater than 45.8 µM.

As to `CCN(CC)CCOC(=O)c1ccc(N)cc1Cl` [Chloroprocaine HCl], the IC50 cell viability is, setting by setting: (ICRF193 0 nM) greater than 45.8 µM; (ICRF193 200 nM) greater than 45.8 µM.

As for `Cc1cnc(C(=O)NCCc2ccc(S(=O)(=O)NC(=O)NC3CCCCC3)cc2)cn1` [Glipizide], the IC50 cell viability runs as follows: (ICRF193 0 nM) greater than 45.8 µM; (ICRF193 200 nM) greater than 45.8 µM.

As for `COc1cc2[nH]c(C)c(CCN3CCN(c4ccccc4)CC3)c2cc1OC` [Oxypertine hydrochloride], the IC50 cell viability is, setting by setting: (ICRF193 0 nM) greater than 45.8 µM; (ICRF193 200 nM) greater than 45.8 µM.

For the molecule `NC(=O)c1ccc[n+]([C@@H]2O[C@H](COP(=O)([O-])OP(=O)(O)OC[C@H]3O[C@@H](n4cnc5c(N)ncnc54)[C@H](O)[C@@H]3O)[C@@H](O)[C@H]2O)c1` [NAD+], the IC50 cell viability is, setting by setting: (ICRF193 0 nM) greater than 45.8 µM; (ICRF193 200 nM) greater than 45.8 µM.

Regarding `O=C(O)/C=C/c1ccccc1` [CINNAMIC ACID], the IC50 cell viability by setting is: (ICRF193 0 nM) greater than 45.8 µM; (ICRF193 200 nM) greater than 45.8 µM.

Consider `CC(=O)SCC(CC(=O)c1ccc(C)cc1)C(=O)O` (configuration not stated) [Esonarimod], for which the IC50 cell viability (ICRF193 0 nM) was greater than 45.8 µM and the IC50 cell viability (ICRF193 200 nM) was greater than 45.8 µM.

The molecule `Cc1nccn1CC1CCc2c(c3ccccc3n2C)C1=O` (configuration not stated) [Ondansetron] displayed an IC50 cell viability (ICRF193 0 nM) greater than 45.8 µM and an IC50 cell viability (ICRF193 200 nM) greater than 45.8 µM.
